In the NIST ThermoML archive (doi:10.1021/je200195q):
Numbers after ± are expanded uncertainties.

Experiment: activity coefficient (dimensionless); of the first substance listed, at infinite dilution; xn = mol fraction of the nth substance listed
Details: 343.15 K; 101 kPa; Liquid; Chromatography; x1 = 0

| SMILES | activity coefficient |
| --- | --- |
| C1CCCCC1 [cyclohexane] + CCCCCCCCCCn1cc[n+](CCCCCCCCCC)c1C.O=S(=O)([N-]S(=O)(=O)C(F)(F)F)C(F)(F)F | 1.26 ± 0.081 |
| CCCCCCCCCC [decane] + CCCCCCCCCCn1cc[n+](CCCCCCCCCC)c1C.O=S(=O)([N-]S(=O)(=O)C(F)(F)F)C(F)(F)F | 3.33 ± 0.23 |
| ClCCl [dichloromethane] + CCCCCCCCCCn1cc[n+](CCCCCCCCCC)c1C.O=S(=O)([N-]S(=O)(=O)C(F)(F)F)C(F)(F)F | 0.351 ± 0.032 |
| CCOCC [diethyl ether] + CCCCCCCCCCn1cc[n+](CCCCCCCCCC)c1C.O=S(=O)([N-]S(=O)(=O)C(F)(F)F)C(F)(F)F | 0.773 ± 0.051 |
| CC(C)OC(C)C [diisopropyl ether] + CCCCCCCCCCn1cc[n+](CCCCCCCCCC)c1C.O=S(=O)([N-]S(=O)(=O)C(F)(F)F)C(F)(F)F | 1.23 ± 0.079 |
| CCO [ethanol] + CCCCCCCCCCn1cc[n+](CCCCCCCCCC)c1C.O=S(=O)([N-]S(=O)(=O)C(F)(F)F)C(F)(F)F | 1.04 ± 0.065 |
| CCc1ccccc1 [ethylbenzene] + CCCCCCCCCCn1cc[n+](CCCCCCCCCC)c1C.O=S(=O)([N-]S(=O)(=O)C(F)(F)F)C(F)(F)F | 0.689 ± 0.046 |

Same assay, conditions: 354.65 K; 101 kPa; Liquid; Chromatography; x1 = 0

| SMILES | activity coefficient |
| --- | --- |
| c1ccccc1 [benzene] + CCCCCC[n+]1ccn(C)c1.FC(F)(F)C(F)(F)[P-](F)(F)(F)(C(F)(F)C(F)(F)F)C(F)(F)C(F)(F)F | 0.564 ± 0.041 |
| CCCCO [butan-1-ol] + CCCCCC[n+]1ccn(C)c1.FC(F)(F)C(F)(F)[P-](F)(F)(F)(C(F)(F)C(F)(F)F)C(F)(F)C(F)(F)F | 1.76 ± 0.12 |
| CCC(C)=O [butanone] + CCCCCC[n+]1ccn(C)c1.FC(F)(F)C(F)(F)[P-](F)(F)(F)(C(F)(F)C(F)(F)F)C(F)(F)C(F)(F)F | 0.171 ± 0.029 |
| C1CCCCCC1 [cycloheptane] + CCCCCC[n+]1ccn(C)c1.FC(F)(F)C(F)(F)[P-](F)(F)(F)(C(F)(F)C(F)(F)F)C(F)(F)C(F)(F)F | 28.7 ± 2 |
| C1CCCCC1 [cyclohexane] + CCCCCC[n+]1ccn(C)c1.FC(F)(F)C(F)(F)[P-](F)(F)(F)(C(F)(F)C(F)(F)F)C(F)(F)C(F)(F)F | 3.62 ± 0.25 |
| CCCCCCCCCC [decane] + CCCCCC[n+]1ccn(C)c1.FC(F)(F)C(F)(F)[P-](F)(F)(F)(C(F)(F)C(F)(F)F)C(F)(F)C(F)(F)F | 15.3 ± 1 |
| ClCCl [dichloromethane] + CCCCCC[n+]1ccn(C)c1.FC(F)(F)C(F)(F)[P-](F)(F)(F)(C(F)(F)C(F)(F)F)C(F)(F)C(F)(F)F | 0.707 ± 0.047 |
| CCOCC [diethyl ether] + CCCCCC[n+]1ccn(C)c1.FC(F)(F)C(F)(F)[P-](F)(F)(F)(C(F)(F)C(F)(F)F)C(F)(F)C(F)(F)F | 0.897 ± 0.057 |
| CC(C)OC(C)C [diisopropyl ether] + CCCCCC[n+]1ccn(C)c1.FC(F)(F)C(F)(F)[P-](F)(F)(F)(C(F)(F)C(F)(F)F)C(F)(F)C(F)(F)F | 1.72 ± 0.12 |
| CCCCCCCCCCCC [dodecane] + CCCCCC[n+]1ccn(C)c1.FC(F)(F)C(F)(F)[P-](F)(F)(F)(C(F)(F)C(F)(F)F)C(F)(F)C(F)(F)F | 25.7 ± 1.8 |
| CCO [ethanol] + CCCCCC[n+]1ccn(C)c1.FC(F)(F)C(F)(F)[P-](F)(F)(F)(C(F)(F)C(F)(F)F)C(F)(F)C(F)(F)F | 1.31 ± 0.085 |
| CCc1ccccc1 [ethylbenzene] + CCCCCC[n+]1ccn(C)c1.FC(F)(F)C(F)(F)[P-](F)(F)(F)(C(F)(F)C(F)(F)F)C(F)(F)C(F)(F)F | 1.04 ± 0.066 |

Same assay, conditions: 362.65 K; 101 kPa; Liquid; Chromatography; x1 = 0

| SMILES | activity coefficient |
| --- | --- |
| c1ccccc1 [benzene] + CCCCn1cc[n+](C)c1.O=S(=O)([N-]S(=O)(=O)C(F)(F)C(F)(F)F)C(F)(F)C(F)(F)F | 1.03 ± 0.065 |
| CCCCO [butan-1-ol] + CCCCn1cc[n+](C)c1.O=S(=O)([N-]S(=O)(=O)C(F)(F)C(F)(F)F)C(F)(F)C(F)(F)F | 1.7 ± 0.11 |
| CCC(C)=O [butanone] + CCCCn1cc[n+](C)c1.O=S(=O)([N-]S(=O)(=O)C(F)(F)C(F)(F)F)C(F)(F)C(F)(F)F | 0.351 ± 0.032 |
| C1CCCCCC1 [cycloheptane] + CCCCn1cc[n+](C)c1.O=S(=O)([N-]S(=O)(=O)C(F)(F)C(F)(F)F)C(F)(F)C(F)(F)F | 56.5 ± 3.9 |
| C1CCCCC1 [cyclohexane] + CCCCn1cc[n+](C)c1.O=S(=O)([N-]S(=O)(=O)C(F)(F)C(F)(F)F)C(F)(F)C(F)(F)F | 5.41 ± 0.37 |
| CCCCCCCCCC [decane] + CCCCn1cc[n+](C)c1.O=S(=O)([N-]S(=O)(=O)C(F)(F)C(F)(F)F)C(F)(F)C(F)(F)F | 28 ± 1.9 |
| ClCCl [dichloromethane] + CCCCn1cc[n+](C)c1.O=S(=O)([N-]S(=O)(=O)C(F)(F)C(F)(F)F)C(F)(F)C(F)(F)F | 0.539 ± 0.039 |
| CCOCC [diethyl ether] + CCCCn1cc[n+](C)c1.O=S(=O)([N-]S(=O)(=O)C(F)(F)C(F)(F)F)C(F)(F)C(F)(F)F | 1.65 ± 0.11 |
| CC(C)OC(C)C [diisopropyl ether] + CCCCn1cc[n+](C)c1.O=S(=O)([N-]S(=O)(=O)C(F)(F)C(F)(F)F)C(F)(F)C(F)(F)F | 3.43 ± 0.23 |
| CCCCCCCCCCCC [dodecane] + CCCCn1cc[n+](C)c1.O=S(=O)([N-]S(=O)(=O)C(F)(F)C(F)(F)F)C(F)(F)C(F)(F)F | 50.9 ± 3.5 |
| CCO [ethanol] + CCCCn1cc[n+](C)c1.O=S(=O)([N-]S(=O)(=O)C(F)(F)C(F)(F)F)C(F)(F)C(F)(F)F | 1.18 ± 0.075 |
| CCc1ccccc1 [ethylbenzene] + CCCCn1cc[n+](C)c1.O=S(=O)([N-]S(=O)(=O)C(F)(F)C(F)(F)F)C(F)(F)C(F)(F)F | 2.06 ± 0.14 |
